Experiment: molar heat capacity at constant pressure; xn = mol fraction of the nth substance listed
Details: 101 kPa, Liquid

CC(O)CN (stereo not given) [1-amino-2-propanol] + O
molar heat capacity at constant pressure [J/K/mol]
Details | x1 = 0.1 | x1 = 0.2007 | x1 = 0.2996 | x1 = 0.4001 | x1 = 0.4983 | x1 = 0.6013 | x1 = 0.6999 | x1 = 0.7996 | x1 = 0.8959 | x1 = 1
303.15 K | 95 | 110 | 121 | 133 | 145 | 158 | 170 | 183 | 196 | 209
308.15 K | 97 | 113 | 124 | 137 | 149 | 162 | 174 | 187 | 200 | 213
313.15 K | 98 | 114 | 126 | 139 | 151 | 164 | 176 | 188 | 201 | 214
318.15 K | 99 | 116 | 128 | 141 | 154 | 166 | 177 | 190 | 202 | 215
323.15 K | 100 | 117 | 130 | 144 | 156 | 168 | 180 | 192 | 204 | 217
328.15 K | 102 | 119 | 133 | 147 | 159 | 171 | 182 | 194 | 206 | 218
333.15 K | 104 | 121 | 136 | 150 | 162 | 174 | 185 | 197 | 209 | 221
338.15 K | 106 | 125 | 140 | 154 | 166 | 178 | 188 | 200 | 211 | 223
343.15 K | 109 | 128 | 144 | 158 | 170 | 181 | 192 | 203 | 214 | 225
348.15 K | 112 | 133 | 149 | 163 | 175 | 185 | 195 | 206 | 216 | 228
353.15 K | 117 | 138 | 155 | 169 | 180 | 190 | 199 | 209 | 219 | 230

Reference: the NIST ThermoML archive (doi:10.1021/je0604232)
